Patent publication US11219580B2, “Oral composition” (Andalay Technologies Limited, priority 2016, dated 2022)
Like-named read-outs stand apart in the source and are kept apart here.

Columns and labels:
[1] = Dissolution Test 2: release of active ingredients from sports-gel style mouthwash (protocol 1B) under simulated mastication, QTOF-UHPLC; format: physicochemical; conditions: for release profile from sports-gel style mouthwash: 10 g mouthwash of protocol 1B in 100 mL stirred water at 37° C., samples 10-600 s, FIGS. 7-11; for relative release profile, order of release: protocol 1B mouthwash, peak-normalised plots, FIG. 12
Protocol: A sports-gel style mouthwash was prepared according to protocol 1B described above. In order to measure the release of the active ingredients from the mouthwash, it was necessary to recreate the mastication conditions of the mouth. The following protocol was employed for this purpose: • i. Whilst stirring with a 3.5 cm magnetic stirrer set at the “7” rotation setting, heat 100 mL of water to 37° C. in a beaker. • ii. Aspirate 1 mL of solution using a pipette to obtain a standard sample. • iii. Add 10 g of the sports-gel style mouthwash prepared according to protocol 1B to the heated water. • Aspirate 1 mL of the resultant solution at time intervals of t=10, 20, 40, 60, 90, 120, 150, 180, 210, 240, 270, 300, 360 and 600 seconds, ensuring that the samples are taken from the outermost rim of the beaker.
Prior to mass spectrometry analysis, the samples and standards obtained were diluted 1 part in 10 in acetonitrile (ACN). All concentrations given below for the calibration are of these diluted solutions.
All samples and calibration standards were injected in the following order: triplicate injections of full calibration standards from low to high concentration, triplicate injection of acetonitrile blank, triplicate injection of sample series B in timeline sequence (each with a single blank in between), single injection of full calibration standards from low to high concentration, triplicate injection of blank acetonitrile, triplicate injection of sample series B in timeline sequence (each with a single blank in between). The reason for the second, shorter, series of calibration standards was to determine if there was any significant decrease in sensitivity (indicated by decrease in peak area) during the batch.
The QTOF-UHPLC analysis was conducted using a MaXis HD quadrupole electrospray time-of-flight (ESI-QTOF) mass spectrometer (Bruker Daltonik GmbH, Bremen, Germany) operated in ESI positive-ion MS mode. The QTOF was coupled to an Ultimate 3000 UHPLC (Thermo Fisher Scientific, California, USA). The capillary voltage was set to 4500 V, nebulising gas at 2 bar, drying gas at 10 L/min at 200° C. The TOF scan range was from 50-750 mass-to-charge ratio (m/z). For effective transmission of ions the ion energy was set to 1.0 eV with the collision energy for TOF MS acquisition at 2.0 eV. Liquid chromatography was performed using a Kinetex […], 2.1×100 mm HILIC column (Phenomenex) with a flow rate of 0.4 mL/min at 30° C. and an injection volume of 10 μL. Mobile phases A and B consisted of 50:50 ACN:H2O with 0.2% v/v formic acid and 10 mM ammonium formate, and 95:5 ACN:H2O with 0.2% v/v formic acid and 10 mM ammonium formate, respectively. Gradient elution was carried out with 100% mobile phase B until 2 min followed by a linear gradient to 0% B at 12 mins, keeping 0% B up until 15 mins, thereafter returned to 100% B until in 20 mins total run time. The MS instrument was calibrated using a range of sodium formate clusters introduced by 10 μL loop-injection prior to the chromatographic run. The mass calibrant solution consisted of 3 parts of 1 M NaOH to 97 parts of 50:50 water:isopropanol with 0.2% formic acid. The observed mass and isotope pattern perfectly matched the corresponding theoretical values as calculated from the expected elemental formula. Most of the target compounds were detected as [M+H]^+ and [M+Na]^+ ions. Data processing was performed using the Data Analysis software version 4.3 (Bruker Daltonik GmbH, Bremen, Germany). Quantification was carried out using the peak area in the extracted ion chromatogram (EIC) of the sum of the protonated and sodiated ion of the target compound.
Using the mass spectrometry data obtained, it is possible evaluate the release profiles of the active ingredients present in the sports-gel style mouthwash under simulated mastication conditions.

[2] = system: rat; conditions: cited from earlier work

| Compound | release profile from sports-gel style mouthwash [1] | relative release profile, order of release [1] | LD50 rat [2] | LD50 rat ([2]; in vivo) |
| --- | --- | --- | --- | --- |
| CC12CCC(CC1)C(C)(C)O2 [Eucalyptol] | reaches its maximum concentration significantly later than, for example, the glycerol or sorbitan monolaurate | follow the release of the surfactant | – | – |
| O [Water] | – | – | 90,000 mg/kg | – |
| Cc1ccc(C(C)C)c(O)c1 [Thymol] | reaches its maximum concentration at a later stage of mastication | – | – | – |
| CC1CCC(C(C)C)C(O)C1 (centres unmarked) [Menthol] | – | – | – | 3,300 mg/kg |
| O=[N+]([O-])[O-].[K+] [Potassium nitrate] | – | – | 3,750 mg/kg | – |
| OC[C@@H](O)[C@H](O)[C@@H](O)CO [Xylitol] | released quickly | follow the release of the surfactant | – | 16,500 mg/kg |
| Sorbitan monolaurate | fast release | the next active ingredient to reach an effective concentration | – | – |
| OCC(O)CO [Glycerine, glycerol] | immediately releases into the surrounding solution and reaches its effective concentration within seconds | released immediately upon commencing mastication | – | 12,600 mg/kg |
